Laboratory results taken from ChEMBL document CHEMBL4651402, “Screening of ~5500 FDA-approved drugs and clinical candidates for anti-SARS-CoV-2 activity” (2021).

Tested on: SARS-CoV-2
Test: microbe, parasite or virus in culture
Settings: Severe acute respiratory syndrome coronavirus 2, Vero C1008, 48 h

Structure (SMILES)	IC50 [µM]	IC50 (read-out: pIC50 (converted)) [µM]
O=C(c1ccc(OCCN2CCCCC2)cc1)c1c(-c2ccc(O)cc2)sc2cc(O)ccc12 [RALOXIFENE]	> 20	> 20
Cc1c(NC(C)C)c(=O)n(-c2ccccc2)n1C [RAMIFENAZONE]	> 20	> 20
Cn1cc(C(=O)[C@@H]2CCc3[nH]cnc3C2)c2ccccc21 [RAMOSETRON]	> 20	> 20
CNC(=C[N+](=O)[O-])NCCSCc1ccc(CN(C)C)o1 [RANITIDINE]	> 20	> 20
COc1ccccc1OCC(O)CN1CCN(CC(=O)Nc2c(C)cccc2C)CC1 (stereo not drawn) [RANOLAZINE]	> 20	> 20
C#CCN[C@@H]1CCc2ccccc21 [RASAGILINE]	> 20	> 20
CN(C)Cc1nccn1-c1ccc(NC(=O)c2cc(C(F)(F)F)nn2-c2ccc3onc(N)c3c2)c(F)c1 [RAZAXABAN]	> 20	> 20
O=C(NC(Cc1cc(=O)[nH]c2ccccc12)C(=O)O)c1ccc(Cl)cc1 (stereo not drawn) [REBAMIPIDE]	> 20	> 20
CNC(=O)c1cc(Oc2ccc(NC(=O)Nc3cc(C(C)(C)C)nn3-c3ccc4ncccc4c3)c(F)c2)ccn1 [REBASTINIB]	> 20	> 20
COc1ccc(-c2cc(=O)c3c(OC)cc(OCC(=O)O)cc3o2)cc1OC [RECOFLAVONE]	> 20	> 20
COc1cc(F)c(F)c(Nc2ccc(I)cc2F)c1NS(=O)(=O)C1(C[C@H](O)CO)CC1 [REFAMETINIB]	> 20	> 20
CNC(=O)c1cnn(-c2nc(N)c3ncn([C@@H]4O[C@H](CO)[C@@H](O)[C@H]4O)c3n2)c1 [REGADENOSON ANHYDROUS]	> 20	> 20
Cc1oc(-c2ccccc2)nc1CCOc1ccc(CC2C(=O)NOC2=O)cc1 (stereo not drawn) [REGLITAZAR]	> 20	> 20
CNC(=O)c1cc(Oc2ccc(NC(=O)Nc3ccc(Cl)c(C(F)(F)F)c3)c(F)c2)ccn1 [REGORAFENIB]	> 20	> 20
COc1ccc(S(=O)(=O)N2c3ccc(Cl)cc3[C@](O)(c3ccccc3Cl)[C@@H]2C(=O)N2CCC[C@H]2C(N)=O)cc1OC [RELCOVAPTAN]	> 20	> 20
CC(Cc1ccccc1)(NC(=O)CN)c1ccccc1 (stereo not drawn) [REMACEMIDE]	> 20	> 20
C=CC(=O)N(C)CCOc1c(N)ncnc1-c1cc(F)cc(NC(=O)c2ccc(C3CC3)cc2F)c1C [REMIBRUTINIB]	> 20	> 20

Structure (SMILES)	IC50 [µM]	IC50 (read-out: pIC50 (converted)) [µM]
COc1cccc(OC)c1-c1cc(C(=O)NC2(C(=O)O)C3CC4CC(C3)CC2C4)nn1-c1ccnc2cc(Cl)ccc12 (stereo not drawn) [REMINERTANT]	> 20	> 20
CCN1CCC[C@H]1CNC(=O)c1c(OC)ccc(Br)c1OC [REMOXIPRIDE]	> 20	> 20
COc1cc(N)c(Cl)cc1C(=O)NC1CCN2CCCC1C2 (stereo not drawn) [RENZAPRIDE]	> 20	> 20
CCOc1cc(CC(=O)N[C@@H](CC(C)C)c2ccccc2N2CCCCC2)ccc1C(=O)O [REPAGLINIDE]	> 20	> 20
CCOCc1nc2c(N)nc3ccccc3c2n1CC(C)(C)O [RESIQUIMOD]	> 20	> 20
CN(C)Cc1ccc(S(=O)(=O)n2ccc(/C=C/C(=O)NO)c2)cc1 [RESMINOSTAT]	> 20	> 20
Oc1cccc(O)c1 [RESORCINOL]	> 20	> 20
Oc1ccc(/C=C/c2cc(O)cc(O)c2)cc1 [RESVERATROL]	> 20	> 20
CCCCCC(O)c1cccc(OCc2ccc3ccccc3n2)c1 (stereo not drawn) [REV-5901]	> 20	> 20
CC(C)(C(=O)NCC(F)(F)C(F)(F)F)C(=O)N[C@@H]1C(=O)Nc2ccccc2-c2ccccc21 [RG-4733]	> 20	> 20
COC1=C(O)C(=O)c2c(cc3oc(C(C)=O)c(O)c3c2O)C1=O [RHODOCLADONIC ACID]	> 20	> 20
NC(=O)c1ncn([C@@H]2O[C@H](CO)[C@@H](O)[C@H]2O)n1 [RIBAVIRIN]	> 50.1	> 50.1
NC[C@H]1O[C@H](O[C@H]2[C@H](O[C@@H]3O[C@H](CO)[C@@H](O)[C@H]3O)[C@@H](O)[C@H](N)C[C@@H]2N)[C@H](N)[C@@H](O)[C@@H]1O [RIBOSTAMYCIN]	> 20	> 20
COc1ccn(C)c(=O)c1C#N [RICININE]	> 20	> 20
O=C(CCCCCCNC(=O)c1cnc(N(c2ccccc2)c2ccccc2)nc1)NO [RICOLINOSTAT]	> 20	> 20
O=C(O)CCCCO/N=C(/c1cccnc1)c1cccc(C(F)(F)F)c1 [RIDOGREL]	> 20	> 20
CO[C@H]1/C=C/O[C@@]2(C)Oc3c(C)c(O)c4c(c3C2=O)C2=NC3(CCN(CC(C)C)CC3)NC2=C(NC(=O)/C(C)=C\C=C\[C@H](C)[C@H](O)[C@@H](C)[C@@H](O)[C@@H](C)[C@H](OC(C)=O)[C@@H]1C)C4=O [RIFABUTIN]	> 20	> 20
